{"source": "patent US20240174669A1", "about": "“CRYSTALLINE FORMS OF A PARP1 INHIBITOR” (XinThera, Inc., priority 2022, published 2024)", "experiment": "Solubility in bio-relevant media, water and pH buffers (HPLC of filtrate, XRPD of filter cake)", "format": "physicochemical", "settings": "for solubility at 0.5 h / solubility at 2 h / solubility at 24 h / solubility / solubility at 4 h / solubility at 8 h: thermodynamic from solid; for solubility at 0.5 h: read-out: Solubility (mg/mL) 0.5 h; for solubility at 2 h: read-out: Solubility (mg/mL) 2 h; for solubility at 24 h: read-out: Solubility (mg/mL) 24 h; for Solubility (mg/mL) 0.5 h / Solubility (mg/mL) 2 h / Solubility (mg/mL) 4 h / Solubility (mg/mL) 8 h: listed as Freebase Form II (Lot #2); for solubility at 4 h: read-out: Solubility (mg/mL) 4 h; for solubility at 8 h: read-out: Solubility (mg/mL) 8 h", "method": "About 15 mg of freebase Form II was weighed into sample vials, and then 3 mL of each media was added to make suspensions, respectively. […] Duplicated samples were prepared for each media.\nHPLC analysis was performed with an Agilent HPLC 1260 series instrument.", "note": "Like-named read-outs stand apart in the source and are kept apart here.", "data": [{"smiles": "CNC(=O)c1ccc(N2CCN(Cc3cnc4cc(C5CC5)c(=O)[nH]c4c3)CC2)cn1", "note": "[Freebase Form II, 5-(4-((7-cyclopropyl-6-oxo-5,6-dihydro-1,5-naphthyridin-3-yl)methyl)piperazin-1-yl)-N-methylpicolinamide]", "values": [{"measurement": "solubility at 0.5 h", "setting": "FaSSIF, 37 °C, pH 6.45, fassif, FaSSIF, initial pH 6.45, 37° C., 800 rpm, 0.5 h", "result": 0.016, "unit": "mg/mL"}, {"measurement": "solubility at 2 h", "setting": "FaSSIF, 37 °C, pH 6.45, fassif, FaSSIF, initial pH 6.45, 37° C., 800 rpm, 2 h", "result": 0.025, "unit": "mg/mL"}, {"measurement": "solubility at 24 h", "setting": "FaSSIF, 37 °C, pH 6.45, fassif, FaSSIF, initial pH 6.45, 37° C., 800 rpm", "result": 0.028, "unit": "mg/mL"}, {"measurement": "solubility", "setting": "FaSSIF, 37 °C", "result": "~20", "unit": "µg/mL"}, {"measurement": "Solubility (mg/mL) 0.5 h", "setting": "FaSSIF, initial pH 6.50, 0.5 h", "result": 0.015, "unit": "mg/mL"}, {"measurement": "Solubility (mg/mL) 2 h", "setting": "FaSSIF, initial pH 6.50, 2 h", "result": 0.015, "unit": "mg/mL"}, {"measurement": "Solubility (mg/mL) 4 h", "setting": "FaSSIF, initial pH 6.50, 4 h", "result": 0.017, "unit": "mg/mL"}, {"measurement": "Solubility (mg/mL) 8 h", "setting": "FaSSIF, initial pH 6.50, 8 h", "result": 0.016, "unit": "mg/mL"}, {"measurement": "solubility at 0.5 h", "setting": "FaSSIF, pH 6.5, fassif, FaSSIF, initial pH 6.50, 0.5 h", "result": 0.016, "unit": "mg/mL"}, {"measurement": "solubility at 2 h", "setting": "FaSSIF, pH 6.5, fassif, FaSSIF, initial pH 6.50, 2 h", "result": 0.017, "unit": "mg/mL"}, {"measurement": "solubility at 4 h", "setting": "FaSSIF, pH 6.5, fassif, FaSSIF, initial pH 6.50, 4 h", "result": 0.021, "unit": "mg/mL"}, {"measurement": "solubility at 8 h", "setting": "FaSSIF, pH 6.5, fassif, FaSSIF, initial pH 6.50, 8 h", "result": 0.023, "unit": "mg/mL"}, {"measurement": "solubility at 0.5 h", "setting": "FeSSIF, 37 °C, pH 4.89, fessif, FeSSIF, initial pH 4.89, 37° C., 800 rpm, 0.5 h", "result": 0.087, "unit": "mg/mL"}, {"measurement": "solubility at 2 h", "setting": "FeSSIF, 37 °C, pH 4.89, fessif, FeSSIF, initial pH 4.89, 37° C., 800 rpm, 2 h", "result": 0.101, "unit": "mg/mL"}, {"measurement": "solubility at 24 h", "setting": "FeSSIF, 37 °C, pH 4.89, fessif, FeSSIF, initial pH 4.89, 37° C., 800 rpm", "result": 0.12, "unit": "mg/mL"}, {"measurement": "solubility", "setting": "FeSSIF, 37 °C, pH 4.98, fessif", "result": "~100", "unit": "µg/mL"}, {"measurement": "solubility at 8 h", "setting": "FeSSIF, 37 °C, pH 4.98, fessif, FeSSIF, initial pH 4.98, 8 h", "result": 0.105, "unit": "mg/mL"}, {"measurement": "Solubility (mg/mL) 0.5 h", "setting": "FeSSIF, initial pH 4.98, 0.5 h", "result": 0.087, "unit": "mg/mL"}, {"measurement": "Solubility (mg/mL) 2 h", "setting": "FeSSIF, initial pH 4.98, 2 h", "result": 0.089, "unit": "mg/mL"}, {"measurement": "Solubility (mg/mL) 4 h", "setting": "FeSSIF, initial pH 4.98, 4 h", "result": 0.096, "unit": "mg/mL"}, {"measurement": "Solubility (mg/mL) 8 h", "setting": "FeSSIF, initial pH 4.98, 8 h", "result": 0.101, "unit": "mg/mL"}, {"measurement": "solubility at 0.5 h", "setting": "FeSSIF, pH 4.98, fessif, FeSSIF, initial pH 4.98, 0.5 h", "result": 0.085, "unit": "mg/mL"}, {"measurement": "solubility at 2 h", "setting": "FeSSIF, pH 4.98, fessif, FeSSIF, initial pH 4.98, 2 h", "result": 0.09, "unit": "mg/mL"}, {"measurement": "solubility at 4 h", "setting": "FeSSIF, pH 4.98, fessif, FeSSIF, initial pH 4.98, 4 h", "result": 0.097, "unit": "mg/mL"}, {"measurement": "solubility at 0.5 h", "setting": "SGF, 37 °C, pH 1.27, simulated gastric fluid, SGF, initial pH 1.27, 37° C., 800 rpm, 0.5 h", "result": "> 5", "unit": "mg/mL"}, {"measurement": "solubility at 2 h", "setting": "SGF, 37 °C, pH 1.27, simulated gastric fluid, SGF, initial pH 1.27, 37° C., 800 rpm, 2 h", "result": "> 5", "unit": "mg/mL"}, {"measurement": "solubility at 24 h", "setting": "SGF, 37 °C, pH 1.27, simulated gastric fluid, SGF, initial pH 1.27, 37° C., 800 rpm", "result": "> 5", "unit": "mg/mL"}, {"measurement": "solubility", "setting": "SGF, 37 °C, simulated gastric fluid", "result": "> 5000", "unit": "µg/mL"}, {"measurement": "crystalline form during solubility test (XRPD of filter cake)", "setting": "all media, up to 24 hours", "result": "remained unchanged"}, {"measurement": "solubility", "setting": "pH 5.0 buffer, 37 °C, pH 5, aqueous buffer", "result": "~50", "unit": "µg/mL"}, {"measurement": "solubility at 0.5 h", "setting": "pH 5.0 buffer, 37 °C, pH 5, aqueous buffer, pH 5.0 buffer, initial pH 4.94, 37° C., 800 rpm, 0.5 h", "result": 0.045, "unit": "mg/mL"}, {"measurement": "solubility at 2 h", "setting": "pH 5.0 buffer, 37 °C, pH 5, aqueous buffer, pH 5.0 buffer, initial pH 4.94, 37° C., 800 rpm, 2 h", "result": 0.05, "unit": "mg/mL"}, {"measurement": "solubility at 24 h", "setting": "pH 5.0 buffer, 37 °C, pH 5, aqueous buffer, pH 5.0 buffer, initial pH 4.94, 37° C., 800 rpm", "result": 0.061, "unit": "mg/mL"}, {"measurement": "solubility", "setting": "pH 6.5 buffer, 37 °C, pH 6.5, aqueous buffer", "result": "~10", "unit": "µg/mL"}, {"measurement": "solubility at 0.5 h", "setting": "pH 6.5 buffer, 37 °C, pH 6.5, aqueous buffer, pH 6.5 buffer, initial pH 6.43, 37° C., 800 rpm, 0.5 h", "result": 0.007, "unit": "mg/mL"}, {"measurement": "solubility at 2 h", "setting": "pH 6.5 buffer, 37 °C, pH 6.5, aqueous buffer, pH 6.5 buffer, initial pH 6.43, 37° C., 800 rpm, 2 h", "result": 0.008, "unit": "mg/mL"}, {"measurement": "solubility at 24 h", "setting": "pH 6.5 buffer, 37 °C, pH 6.5, aqueous buffer, pH 6.5 buffer, initial pH 6.43, 37° C., 800 rpm", "result": 0.01, "unit": "mg/mL"}, {"measurement": "solubility at 0.5 h", "setting": "water, 37 °C, pH 4.18, water, Water, initial pH 4.18, 37° C., 800 rpm, 0.5 h", "result": 0.007, "unit": "mg/mL"}, {"measurement": "solubility at 2 h", "setting": "water, 37 °C, pH 4.18, water, Water, initial pH 4.18, 37° C., 800 rpm, 2 h", "result": 0.008, "unit": "mg/mL"}, {"measurement": "solubility at 24 h", "setting": "water, 37 °C, pH 4.18, water, Water, initial pH 4.18, 37° C., 800 rpm", "result": 0.01, "unit": "mg/mL"}, {"measurement": "solubility", "setting": "water, 37 °C", "result": "~10", "unit": "µg/mL"}]}]}
